Test results taken from patent US20160160179A1, “METHOD FOR OBTAINING A POPULATION OF ISOLATED BRITE ADIPOCYTES” (INSERM (INSTITUT NATIONAL DE LA SANTÉ ET DE LA RECHERCHE …, priority 2013, published 2016).
Where a name gives a salt, the structure may show the parent alone.

Experiments:
[1] = tested on: whole native progenitor cells (CD45−/CD34+/CD31−); assay: In vitro adipogenesis of whole native progenitor cells; format: cell-based, human; settings: 0.25 mM IBMX for 3 days, ITTC medium until day 10
Source text: (§1) An immuno-selection/depletion approach was developed to obtain the native progenitor cell subsets starting from 50.10^6 to 150.10^6 SVF cells. The total progenitor cell population (CD34+/CD31− cells) was obtained in two steps: immune cells were first removed using CD45 positive cell-depletion step (CD45-depletion kit from Stemcell Technologies, Grenoble, France) followed by endothelial cell depletion step using an anti-CD31-depletion kit (R&D Systems, Lille, France) according to manufacturer's protocol. To further isolate the distinct progenitor cell subsets, the Mscal-positive cells were selected from the CD45−/CD31− cells, the −/CD271 positive cells were selected from the CD45−/CD31−/MSCA1− cells and the CD45−/CD31−/MSCA1−/CD271− (−/−) cells using CD34 immuno-magnetic selection kits (MSCA1+, CD271+ and CD34+ immuno-magnetic selection kits were from Miltenyi Biotec, Paris, France). The purity of each fraction was assessed after selection by flow cytometry analyses.

[2] = tested on: MSCA1+ cells (CD45−/CD34+/CD31−/CD271+/MSCA1+); assay: In vitro adipogenesis of the immunoselected MSCA1+ cell subset; format: cell-based, human; settings: IBMX stimulation
Source text: as §1
(§2) Total RNAs were extracted using the RNeasy kit (Qiagen). […] RNAs were reverse-transcribed using Superscript® II kit (Invitrogen). TaqMan® Primers are listed in supplemental data Table 1.
Cells or small pieces of whole AT were fixed (paraformaldehyde 4%, room temperature for 15 min for cultured cells and up to 1 h for whole AT). […]

[3] = tested on: native human AT progenitor cells
Experimental: 120 000 cells were plated per cm^2 in growth medium (ECGM MV) supplemented with […] penicillin-streptomycin. 48 h after seeding, medium was changed into basal defined medium (ECBM) supplemented with […] penicillin-streptomycin, 66 nmol/L Insulin, 1 nmol/L Triiodothyronine, 0.1 μg/ml human Transferrin, 100 nmol/L Cortisol (ITTC, Control) supplemented or not with 3 μmol/L Rosiglitazone or 0.25 mM isobuthylmethaxantine (IBMX). After 3 days, medium was changed and cells were maintained in ITTC medium until day 10. Cells were fixed (paraformaldehyde 4%, 15 min, RT), and stained with Bodipy 493/503 (10 μg/ml, 15 min, Invitrogen) and Hoechst 33342 (5 μg/ml, 15 min, Invitrogen). Stainings were observed by inversed fluorescent microscope (Nikon Eclipse TE300) and 5 pictures were randomly taken under 20X objective (numeric camera and acquisition software NIS-Elements 2.5 BR, Nikon®). Differentiation area (Bodipy stained area, μm^2) was measured with ImageJ software and normalized by nuclei cell number in order to obtain the differentiation area (μm^2) per cell. Total RNAs were extracted using the RNeasy kit (Qiagen). The RNA concentration was measured by fluorimetric assay (Ribogreen, Invitrogen). RNAs were reverse-transcribed using Superscript® II kit (Invitrogen). TaqMan® Primers are listed in supplemental data Table 1. The amplification reaction was done in duplicate on 15 ng of the cDNA samples in a final volume of 20 μL in 96-well reaction plates (Applied Biosystems) in a GeneAmp 7500 detection system (Applied Biosystems). All reactions were performed under the same conditions: 50° C. for 2 minutes, 95° C. for 10 minutes, 40 cycles of 95° C. for 15 seconds, and 60° C. for 1 minute. Results were analyzed with the GeneAmp 7500 software and all values were normalised to 18S rRNA levels. Progenitor cells were cultured under adipogenic conditions with or without 50 μM or 500 μM of tetramisole hydrochloride, an alkaline phosphatase inhibitor. After 3 to 10 days, Bodipy staining was performed or RNAs extracted. Progenitor cells were seeded at the density of 90000/cm2 cells in 12 well-plates. After 24 hours, cells were transfected with 500 ng/mL of MISSION® esiRNA against tissue non-specific alkaline phosphatase (MSCA1) or GFP as negative control with 1 μL of lipofectamine® 2000 (invitrogen) in 1 mL of basal medium. After 12 hours, medium was removed and cells were rinsed once with PBS and cultured under adipogenic conditions for 3 to 10 days and RNAs were extracted.

Progenitor cells = assay: BMP7 adipogenic culture protocol; format: cell-based, human; settings: 50 ng/mL for 2 days, then 9 days in ITTC
Experimental: Progenitor cells were treated during 2 days with recombinant human BMP7 (50 ng/mL) then 9 days in adipogenic medium (ITTC).
MSCA1 gene expression and activity were measured. UCP1 gene expression was measured by RT-PCR.
as §2

CC(C)Cn1c(=O)n(C)c(=O)c2[nH]cnc21 [IBMX, 3-isobutyl-1-methylxanthine]
differentiation [1]: only slightly and insignificantly increased
differentiation (lipid laden cells) ([2]; 0.25 mM): marked appearance of lipid laden cells
UCP1-positive cell clusters ([2]; immunofluorescence): only found in cells from the MSCA1+ subset

c1ccc(C2CN3CCSC3=N2)cc1 (stereo not shown) [tetramisole, tetramisole hydrochloride]
total number of nucleated cells ([3]; 50 μM or 500 μM, adipogenic culture conditions): without altering
adipocyte differentiation ([3]; 50 μM or 500 μM, adipogenic culture conditions, Bodipy staining): concentration-dependent decrease
expression of adipogenic and adipocyte-specific genes after the commitment period ([3]; day 3): No statistically significant effect
expression of adipogenic transcription factors PPARγ2, CHREBP, C/EBPα and adipocyte-specific genes LPL, GPDH, PLIN1 ([3]; day 10): decreased

B1: BMP7: recombinant human BMP7, a Bone Morphogenetic Protein (protein, UniProt P18075 293-431, looked up)
Bone morphogenetic protein 7: STGSKQRSQNRSKTPKNQEALRMANVAENSSSDQRQACKKHELYVSFRDLGWQDWIIAPEGYAAYYCEGECAFPLNSYMNATNHAIVQTLVHFINPETVPKPCCAPTQLNAISVLYFDDSSNVILKKYRNMVVRACGCH
activity of the MSCA1 gene (Progenitor cells): significantly increased
expression of the MSCA1 gene (Progenitor cells): significantly increased
UCP1 gene expression (Progenitor cells; RT-PCR): significant increase
